Measurements: ChEMBL document CHEMBL4842383 (J Med Chem, 2021)
Active and inactive are the calls of the source. The calls are words filed in the database; no cut-off is given here.

What was measured:
[1] = Half life in Sprague-Dawley rat at 5 mg/kg, iv measured up to 24 hrs by LC-MS/MS analysis; format: ADME, organism-based; conditions: in vivo
[2] = test system: BaF3; experiment: Antiproliferative activity against mouse BaF3 cells transfected with human ETV6-CSF1R assessed as reduction in cell viability measured after 72 hrs by MTS method; conditions: BaF3, 72 h
[3] = target: Mast/stem cell growth factor receptor Kit (Homo sapiens, UniProt P10721); experiment: Inhibition of human c-Kit by Kinomescan method
[4] = target: Epithelial discoidin domain-containing receptor 1 (Homo sapiens, UniProt Q08345); experiment: Inhibition of wild-type human partial length DDR1 (R565 to V876 residues) expressed in bacterial expression system by Kinomescan method
[5] = Dose normalized Cmax in Sprague-Dawley rat at 20 to 25 mg/kg, po measured up to 24 hrs by LC-MS/MS analysis; format: ADME, organism-based; conditions: in vivo, dose 20-25 mg/kg
[6] = Volume of distribution at steady state in Sprague-Dawley rat at 5 mg/kg, iv measured up to 24 hrs by LC-MS/MS analysis; format: ADME, organism-based; conditions: in vivo, read-out: Vdss
[7] = Oral bioavailability in Sprague-Dawley rat at 20 to 25 mg/kg measured up to 24 hrs by LC-MS/MS analysis; format: ADME, organism-based; conditions: in vivo, dose 20-25 mg/kg
[8] = Half life in Sprague-Dawley rat at 20 to 25 mg/kg, po measured up to 24 hrs by LC-MS/MS analysis; format: ADME, organism-based; conditions: in vivo, dose 20-25 mg/kg
[9] = target: T1, Macrophage colony-stimulating factor 1 receptor (Homo sapiens, UniProt P07333); experiment: Inhibition of human recombinant GST-CSF1R (residues L534 to C972) expressed in Sf9 insect cells using poly(Glu,Tyr) as substrate incubated for 20 mins by ATP Kinase Glo assay
[10] = test system: BMDM; experiment: Growth inhibition of CSF1-induced mouse BMDM cell assessed as inhibition of M2 like macrophage growth incubated for 3 days by WST-8 assay; conditions: 72 h
[11] = test system: NFS-60; experiment: Antiproliferative activity against mouse NFS-60 cells transfected with human ETV6-CSF1R assessed as reduction in cell viability measured after 72 hrs by MTS method; format: functional, cell-based; conditions: NFS-60, 72 h
[12] = target: T2, Aurora kinase B (Homo sapiens, UniProt Q96GD4); experiment: Inhibition of wild-type human partial length AURKB (D25 to A303 residues) expressed in mammalian expression system by Kinomescan method
[13] = target: T2, Aurora kinase B; experiment: Inhibition of human recombinant full length GST-AURKB using tetra(-LRRASLG) peptide as substrate incubated for 20 mins by ATP Kinase Glo assay; design: species or system Sf9
[14] = target: Platelet-derived growth factor receptor alpha (Homo sapiens, UniProt P16234); experiment: Inhibition of wild-type human partial length PDGFRalpha (V575 to D1002 residues) expressed in mammalian expression system by Kinomescan method
[15] = target: T3, Aurora kinase A (Homo sapiens, UniProt O14965); experiment: Inhibition of recombinant GST-AURKA (residues Ser123 to Ser401) (unknown origin) expressed in Sf9 insect cells using tetra(-LRRASLG) peptide as substrate incubated for 90 mins by ATP Kinase Glo assay
T3 sequence (O14965 whole entry): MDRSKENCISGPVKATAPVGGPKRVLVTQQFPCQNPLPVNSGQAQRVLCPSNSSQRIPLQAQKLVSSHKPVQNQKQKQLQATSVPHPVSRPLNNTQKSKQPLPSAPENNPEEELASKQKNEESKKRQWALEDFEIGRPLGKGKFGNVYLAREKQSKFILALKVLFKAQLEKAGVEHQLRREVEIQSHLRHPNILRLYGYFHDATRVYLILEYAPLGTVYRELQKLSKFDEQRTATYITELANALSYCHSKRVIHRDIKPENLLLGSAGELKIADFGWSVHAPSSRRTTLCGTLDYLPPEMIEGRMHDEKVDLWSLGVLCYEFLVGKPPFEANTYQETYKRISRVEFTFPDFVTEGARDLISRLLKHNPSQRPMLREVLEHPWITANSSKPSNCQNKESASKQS

[16] = Tmax in Sprague-Dawley rat at 20 to 25 mg/kg, po measured up to 24 hrs by LC-MS/MS analysis; format: ADME, organism-based; conditions: in vivo, dose 20-25 mg/kg
[17] = target: Serine/threonine-protein kinase PAK 3 (Homo sapiens, UniProt O75914); experiment: Inhibition of wild-type human full length PAK3 (M1 to R544 residues) expressed in bacterial expression system by Kinomescan method
[18] = test system: BMDM; experiment: Growth inhibition of CSF2-induced mouse BMDM cell assessed as inhibition of M1 like macrophage growth for 3 days by WST-8 assay; conditions: 72 h
[19] = Clearance in Sprague-Dawley rat at 5 mg/kg, iv measured up to 24 hrs by LC-MS/MS analysis; format: ADME, organism-based; conditions: in vivo
[20] = target: Platelet-derived growth factor receptor beta (Homo sapiens, UniProt P09619); experiment: Inhibition of wild-type human partial length PDGFRbeta (V582 to Y1009 residues) expressed in bacterial expression system by Kinomescan method
[21] = target: T4, Receptor-type tyrosine-protein kinase FLT3 (Homo sapiens, UniProt P36888); experiment: Inhibition of wild-type human partial length FLT3 (V592 to Y969 residues) expressed in bacterial expression system by Kinomescan method
T4 sequence (P36888 whole entry): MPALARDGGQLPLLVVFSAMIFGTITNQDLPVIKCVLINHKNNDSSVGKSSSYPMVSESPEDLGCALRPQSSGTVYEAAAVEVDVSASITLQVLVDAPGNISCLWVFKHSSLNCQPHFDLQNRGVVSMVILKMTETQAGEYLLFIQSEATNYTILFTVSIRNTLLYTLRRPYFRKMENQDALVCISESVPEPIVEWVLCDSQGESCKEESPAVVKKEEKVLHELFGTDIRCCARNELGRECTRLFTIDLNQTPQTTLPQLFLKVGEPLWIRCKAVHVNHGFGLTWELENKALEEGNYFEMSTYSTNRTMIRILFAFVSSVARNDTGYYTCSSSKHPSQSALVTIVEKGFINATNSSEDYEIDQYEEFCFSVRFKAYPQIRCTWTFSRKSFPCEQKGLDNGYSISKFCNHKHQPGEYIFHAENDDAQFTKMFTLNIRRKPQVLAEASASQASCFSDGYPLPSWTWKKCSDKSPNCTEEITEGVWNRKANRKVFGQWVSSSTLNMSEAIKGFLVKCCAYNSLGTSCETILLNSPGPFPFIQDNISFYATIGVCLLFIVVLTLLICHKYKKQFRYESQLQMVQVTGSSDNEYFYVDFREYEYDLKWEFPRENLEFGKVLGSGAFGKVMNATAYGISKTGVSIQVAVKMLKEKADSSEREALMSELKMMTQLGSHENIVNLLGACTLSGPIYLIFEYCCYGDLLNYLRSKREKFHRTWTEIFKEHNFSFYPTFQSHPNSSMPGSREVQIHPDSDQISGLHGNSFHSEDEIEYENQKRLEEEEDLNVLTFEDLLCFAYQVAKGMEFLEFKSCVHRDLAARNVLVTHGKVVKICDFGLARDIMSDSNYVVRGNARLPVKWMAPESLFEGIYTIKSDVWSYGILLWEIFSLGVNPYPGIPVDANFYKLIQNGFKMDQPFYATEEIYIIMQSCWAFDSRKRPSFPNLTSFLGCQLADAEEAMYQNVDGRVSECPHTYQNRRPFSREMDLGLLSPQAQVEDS

[22] = target: Vascular endothelial growth factor receptor 2 (Homo sapiens, UniProt P35968); experiment: Inhibition of wild-type human partial length VEGFR2 (R787 to P1253 residues) expressed in mammalian expression system by Kinomescan method
[23] = test system: Mus musculus; experiment: Immunomodulatory activity in mouse MC38 cells inoculated C57BL/6 mouse syngeneic model assessed as increase in cytotoxic CD8+ T cell to M2 like TAM ratio in tumor at 100 mg/kg, po twice a day for 2 weeks by five days on/two days off schedule relative to control; format: functional, organism-based; conditions: MC-38
[24] = test system: Mus musculus; experiment: Immunomodulatory activity in mouse MC38 cells inoculated C57BL/6 mouse syngeneic model assessed as increase in M1 to M2 like TAM ratio in tumor at 100 mg/kg, po twice a day for 2 weeks by five days on/two days off schedule relative to control; format: functional, organism-based; conditions: MC-38
[25] = target: T5, Macrophage colony-stimulating factor 1 receptor (Mus musculus) (UniProt P09581); experiment: Inhibition of CSF1R phosphorylation in mouse RAW264.7 cells by Western blotting analysis; format: cell-based
T5 sequence (whole entry): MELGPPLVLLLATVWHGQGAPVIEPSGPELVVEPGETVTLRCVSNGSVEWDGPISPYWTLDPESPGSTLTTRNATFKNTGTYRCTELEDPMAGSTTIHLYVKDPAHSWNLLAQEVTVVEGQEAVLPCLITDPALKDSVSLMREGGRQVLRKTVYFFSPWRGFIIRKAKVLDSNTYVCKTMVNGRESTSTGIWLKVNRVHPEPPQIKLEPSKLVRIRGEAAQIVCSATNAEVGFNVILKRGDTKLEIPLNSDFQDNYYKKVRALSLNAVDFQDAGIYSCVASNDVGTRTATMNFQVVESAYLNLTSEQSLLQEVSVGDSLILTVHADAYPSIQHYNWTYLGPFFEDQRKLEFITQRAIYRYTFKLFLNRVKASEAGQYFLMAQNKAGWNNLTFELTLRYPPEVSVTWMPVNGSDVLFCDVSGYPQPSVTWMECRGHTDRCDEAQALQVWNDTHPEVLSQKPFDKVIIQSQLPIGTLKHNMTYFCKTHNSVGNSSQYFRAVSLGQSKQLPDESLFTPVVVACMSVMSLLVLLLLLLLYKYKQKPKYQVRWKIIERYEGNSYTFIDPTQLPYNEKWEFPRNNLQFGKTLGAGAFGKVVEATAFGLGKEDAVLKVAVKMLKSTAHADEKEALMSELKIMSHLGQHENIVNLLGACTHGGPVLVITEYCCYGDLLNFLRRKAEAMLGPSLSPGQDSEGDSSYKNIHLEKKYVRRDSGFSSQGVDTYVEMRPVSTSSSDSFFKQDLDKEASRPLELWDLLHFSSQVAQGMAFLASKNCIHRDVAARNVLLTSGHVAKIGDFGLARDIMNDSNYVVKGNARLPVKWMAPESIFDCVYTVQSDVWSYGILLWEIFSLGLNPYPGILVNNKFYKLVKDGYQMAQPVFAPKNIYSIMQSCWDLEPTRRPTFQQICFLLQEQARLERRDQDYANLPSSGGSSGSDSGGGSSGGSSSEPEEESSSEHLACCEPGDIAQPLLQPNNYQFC

[26] = target: T6, Aurora kinase A (Homo sapiens) (UniProt O14965); experiment: Inhibition of recombinant GST-AURKA (residues Ser123 to Ser401) (unknown origin) expressed in Sf9 insect cells using tetra(-LRRASLG) peptide as substrate at 1 uM incubated for 90 mins by ATP Kinase Glo assay
T6 sequence (whole entry): T3 sequence (O14965 whole entry)

[27] = target: T1, Macrophage colony-stimulating factor 1 receptor; experiment: Inhibition of CSF1R phosphorylation in human THP-1 cells by Western blotting analysis; format: cell-based
[28] = test system: RAW264.7; experiment: Anti-inflammatory activity mouse RAW264.7 cells assessed as inhibition of LPS-induced TNFalpha production by ELISA; format: functional, cell-based
[29] = target: T2, Aurora kinase B; experiment: Inhibition of human recombinant full length GST-AURKB using tetra(-LRRASLG) peptide as substrate at 0.1 uM incubated for 20 mins by ATP Kinase Glo assay; format: biochemical; conditions: Sf9

T2 sequence (Q96GD4 whole entry, the tested form may be a part): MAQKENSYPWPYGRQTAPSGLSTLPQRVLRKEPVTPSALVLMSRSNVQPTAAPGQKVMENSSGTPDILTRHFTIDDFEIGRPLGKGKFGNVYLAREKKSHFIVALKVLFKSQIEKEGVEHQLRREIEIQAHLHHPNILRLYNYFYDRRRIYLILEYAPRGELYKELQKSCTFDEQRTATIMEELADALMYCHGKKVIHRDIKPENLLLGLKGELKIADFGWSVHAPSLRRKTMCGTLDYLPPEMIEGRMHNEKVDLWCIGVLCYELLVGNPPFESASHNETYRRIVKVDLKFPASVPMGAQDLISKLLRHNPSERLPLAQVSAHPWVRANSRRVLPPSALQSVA
T1 sequence (P07333 whole entry, the tested form may be a part): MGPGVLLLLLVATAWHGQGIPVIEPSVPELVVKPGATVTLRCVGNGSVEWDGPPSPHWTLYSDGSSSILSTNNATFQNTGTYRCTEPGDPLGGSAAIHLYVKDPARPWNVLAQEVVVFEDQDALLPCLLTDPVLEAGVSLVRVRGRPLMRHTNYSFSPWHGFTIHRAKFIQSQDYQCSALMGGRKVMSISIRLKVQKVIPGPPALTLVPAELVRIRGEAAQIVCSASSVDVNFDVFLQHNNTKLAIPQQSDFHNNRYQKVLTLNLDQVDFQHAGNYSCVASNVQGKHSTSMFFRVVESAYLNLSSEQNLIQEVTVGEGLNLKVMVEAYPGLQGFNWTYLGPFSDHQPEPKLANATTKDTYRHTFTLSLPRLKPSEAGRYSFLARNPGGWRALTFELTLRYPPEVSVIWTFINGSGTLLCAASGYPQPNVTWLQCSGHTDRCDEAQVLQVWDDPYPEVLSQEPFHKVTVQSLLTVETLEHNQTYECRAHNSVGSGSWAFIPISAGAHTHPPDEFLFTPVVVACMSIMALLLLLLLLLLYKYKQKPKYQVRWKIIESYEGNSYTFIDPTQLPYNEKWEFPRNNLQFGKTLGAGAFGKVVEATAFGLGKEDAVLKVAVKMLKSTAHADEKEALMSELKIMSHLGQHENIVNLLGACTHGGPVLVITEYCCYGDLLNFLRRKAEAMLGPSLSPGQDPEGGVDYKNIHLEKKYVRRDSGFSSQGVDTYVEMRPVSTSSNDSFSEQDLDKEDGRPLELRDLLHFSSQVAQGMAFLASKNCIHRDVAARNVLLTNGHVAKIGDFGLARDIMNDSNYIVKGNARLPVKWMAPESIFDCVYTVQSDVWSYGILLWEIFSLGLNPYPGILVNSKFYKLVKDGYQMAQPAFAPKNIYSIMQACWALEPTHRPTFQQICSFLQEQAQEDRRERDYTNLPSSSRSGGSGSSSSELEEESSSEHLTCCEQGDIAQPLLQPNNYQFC
Chain of Serine/threonine-protein kinase PAK 3 (O75914 whole entry, the tested form may be a part): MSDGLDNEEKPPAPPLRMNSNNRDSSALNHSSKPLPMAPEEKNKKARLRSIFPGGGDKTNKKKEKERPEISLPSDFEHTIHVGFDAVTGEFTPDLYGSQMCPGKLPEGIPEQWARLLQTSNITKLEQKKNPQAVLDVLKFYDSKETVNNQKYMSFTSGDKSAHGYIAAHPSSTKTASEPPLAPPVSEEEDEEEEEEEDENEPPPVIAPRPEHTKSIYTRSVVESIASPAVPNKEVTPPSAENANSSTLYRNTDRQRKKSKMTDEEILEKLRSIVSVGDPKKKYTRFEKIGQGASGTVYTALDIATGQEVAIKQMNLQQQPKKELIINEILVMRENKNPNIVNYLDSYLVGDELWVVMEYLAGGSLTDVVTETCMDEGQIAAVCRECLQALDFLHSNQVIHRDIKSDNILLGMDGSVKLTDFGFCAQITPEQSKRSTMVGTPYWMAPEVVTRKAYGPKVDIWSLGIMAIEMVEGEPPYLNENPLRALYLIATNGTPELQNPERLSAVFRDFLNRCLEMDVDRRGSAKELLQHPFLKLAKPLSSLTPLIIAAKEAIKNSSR
Chain of Platelet-derived growth factor receptor beta (P09619 whole entry, the tested form may be a part): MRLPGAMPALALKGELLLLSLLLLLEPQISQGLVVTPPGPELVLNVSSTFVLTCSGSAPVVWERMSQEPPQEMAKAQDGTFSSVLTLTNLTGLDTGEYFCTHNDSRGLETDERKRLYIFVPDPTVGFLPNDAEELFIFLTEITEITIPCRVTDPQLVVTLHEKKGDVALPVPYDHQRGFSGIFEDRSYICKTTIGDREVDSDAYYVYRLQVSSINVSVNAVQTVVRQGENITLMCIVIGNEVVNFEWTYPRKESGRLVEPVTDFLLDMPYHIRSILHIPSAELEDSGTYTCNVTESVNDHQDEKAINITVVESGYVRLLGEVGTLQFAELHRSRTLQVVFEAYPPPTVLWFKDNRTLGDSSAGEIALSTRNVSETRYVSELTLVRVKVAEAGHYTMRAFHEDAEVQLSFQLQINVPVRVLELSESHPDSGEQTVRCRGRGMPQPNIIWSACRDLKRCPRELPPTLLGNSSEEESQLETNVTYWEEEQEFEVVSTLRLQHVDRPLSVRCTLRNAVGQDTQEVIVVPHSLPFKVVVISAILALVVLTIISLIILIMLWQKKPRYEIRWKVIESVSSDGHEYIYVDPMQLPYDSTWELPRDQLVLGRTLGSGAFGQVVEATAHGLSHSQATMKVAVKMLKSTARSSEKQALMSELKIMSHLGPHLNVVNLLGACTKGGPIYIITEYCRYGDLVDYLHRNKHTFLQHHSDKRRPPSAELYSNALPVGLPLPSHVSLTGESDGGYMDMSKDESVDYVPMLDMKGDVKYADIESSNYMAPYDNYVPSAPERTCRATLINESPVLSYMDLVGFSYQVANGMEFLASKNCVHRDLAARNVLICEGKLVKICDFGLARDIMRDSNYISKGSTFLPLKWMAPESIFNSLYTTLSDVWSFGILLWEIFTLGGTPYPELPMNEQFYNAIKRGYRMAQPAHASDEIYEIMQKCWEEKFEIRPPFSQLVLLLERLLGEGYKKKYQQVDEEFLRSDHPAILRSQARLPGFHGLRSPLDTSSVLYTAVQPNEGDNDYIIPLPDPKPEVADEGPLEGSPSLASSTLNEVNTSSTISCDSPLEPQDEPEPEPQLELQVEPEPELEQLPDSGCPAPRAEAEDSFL
Chain of Epithelial discoidin domain-containing receptor 1 (Q08345 whole entry, the tested form may be a part): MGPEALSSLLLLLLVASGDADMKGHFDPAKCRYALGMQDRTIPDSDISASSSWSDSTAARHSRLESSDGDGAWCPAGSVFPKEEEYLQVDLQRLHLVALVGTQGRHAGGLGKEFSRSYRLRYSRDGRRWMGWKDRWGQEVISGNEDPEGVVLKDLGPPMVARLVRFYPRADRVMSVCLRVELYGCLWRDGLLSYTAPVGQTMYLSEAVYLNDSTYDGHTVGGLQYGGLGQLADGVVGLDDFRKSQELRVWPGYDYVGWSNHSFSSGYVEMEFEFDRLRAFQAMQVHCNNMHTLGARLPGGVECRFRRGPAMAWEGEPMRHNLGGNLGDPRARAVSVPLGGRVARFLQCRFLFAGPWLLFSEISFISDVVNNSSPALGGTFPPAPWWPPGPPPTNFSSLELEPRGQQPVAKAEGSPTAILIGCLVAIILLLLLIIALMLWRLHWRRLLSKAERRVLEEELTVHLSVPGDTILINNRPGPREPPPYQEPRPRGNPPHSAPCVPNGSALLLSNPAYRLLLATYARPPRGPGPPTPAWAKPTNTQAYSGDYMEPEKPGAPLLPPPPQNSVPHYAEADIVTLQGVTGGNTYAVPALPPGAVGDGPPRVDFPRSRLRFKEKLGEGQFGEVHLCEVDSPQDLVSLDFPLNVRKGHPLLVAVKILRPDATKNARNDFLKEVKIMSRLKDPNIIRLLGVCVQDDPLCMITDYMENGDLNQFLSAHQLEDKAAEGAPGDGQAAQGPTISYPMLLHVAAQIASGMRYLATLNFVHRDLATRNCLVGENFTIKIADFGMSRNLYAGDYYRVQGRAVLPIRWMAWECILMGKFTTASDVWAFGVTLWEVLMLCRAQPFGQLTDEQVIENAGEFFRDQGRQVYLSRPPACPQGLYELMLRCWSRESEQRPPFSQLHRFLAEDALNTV
Chain of Mast/stem cell growth factor receptor Kit (P10721 whole entry, the tested form may be a part): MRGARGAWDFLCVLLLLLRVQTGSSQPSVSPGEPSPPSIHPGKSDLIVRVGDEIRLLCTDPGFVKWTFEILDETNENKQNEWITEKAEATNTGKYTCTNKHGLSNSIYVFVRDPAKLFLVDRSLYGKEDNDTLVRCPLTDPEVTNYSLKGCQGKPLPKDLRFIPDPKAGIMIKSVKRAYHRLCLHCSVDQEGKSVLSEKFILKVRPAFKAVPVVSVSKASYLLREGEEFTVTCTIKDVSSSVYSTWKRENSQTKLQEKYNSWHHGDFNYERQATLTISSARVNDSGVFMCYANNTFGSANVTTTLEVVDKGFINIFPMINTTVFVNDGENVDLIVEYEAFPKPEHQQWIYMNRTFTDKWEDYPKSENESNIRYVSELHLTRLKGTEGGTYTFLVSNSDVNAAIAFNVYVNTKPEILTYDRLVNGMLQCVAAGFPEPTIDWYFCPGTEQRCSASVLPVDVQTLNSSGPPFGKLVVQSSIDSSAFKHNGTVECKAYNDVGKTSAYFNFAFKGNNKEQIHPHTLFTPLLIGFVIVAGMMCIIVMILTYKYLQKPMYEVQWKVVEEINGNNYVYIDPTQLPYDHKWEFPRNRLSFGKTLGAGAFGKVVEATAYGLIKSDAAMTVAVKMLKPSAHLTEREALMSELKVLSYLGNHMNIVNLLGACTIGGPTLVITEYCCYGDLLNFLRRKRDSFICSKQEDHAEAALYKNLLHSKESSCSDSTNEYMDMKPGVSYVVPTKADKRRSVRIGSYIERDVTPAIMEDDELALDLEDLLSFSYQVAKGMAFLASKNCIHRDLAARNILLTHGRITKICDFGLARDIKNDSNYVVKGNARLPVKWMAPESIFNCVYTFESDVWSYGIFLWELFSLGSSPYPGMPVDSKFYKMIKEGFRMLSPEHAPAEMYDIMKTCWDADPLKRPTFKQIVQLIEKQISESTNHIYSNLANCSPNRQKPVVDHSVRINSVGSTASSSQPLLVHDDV

What does the source list for CN(C)c1ccc2c(Oc3ccc(NC(=O)NCc4ccc(C(F)(F)F)nc4)cc3)ncnc2c1 [listing 1 of 2 here]?
half-life [1]: 2.9 h; EC50 [2]: 80 nM; IC50 [3]: 1.1 nM; IC50 [4]: 59.7 nM; Cmax/dose [5]: 24 ng/mL; Vd [6]: 0.6 L/kg; bioavailability [7]: 10%; half-life [8]: 8.7 h; IC50 [9]: 14.4 nM; IC50 [10]: 31 nM; EC50 [11]: 95 nM; IC50 [12]: 226 nM; IC50 [13]: 1400 nM; IC50 [14]: 52.7 nM; IC50 [15]: > 10000 nM; Tmax [16]: 5.5 h; IC50 [17]: > 9000 nM; IC50 [18]: 5390 nM; clearance [19]: 4.5 mL/min/kg; IC50 [20]: 31.5 nM; IC50 [21]: 64.3 nM; IC50 [22]: > 9000 nM

Which Activity [23] does the source give for CN(C)c1ccc2c(Oc3ccc(NC(=O)NCc4ccc(C(F)(F)F)nc4)cc3)ncnc2c1 [listing 2 of 2 here] here?
Its Activity is “Active”.

And the Activity [24]?
The Activity was “Active”.

What about the inhibition [25] of the same compound?
Its inhibition is “Dose-Dependent Effect”.

And the inhibition [26]?
The inhibition was 7%.

What about the inhibition [27] of the same compound?
The inhibition was “Dose-Dependent Effect”.

What about the inhibition [28] of the same compound?
The inhibition was “Active”.

What about the inhibition [29] of the same compound?
The inhibition was 16%.

With FC(F)(F)c1ccc(CNc2ccc(Cc3c[nH]c4ncc(Cl)cc34)cn2)cn1 [PEXIDARTINIB] as the compound, how does the EC50 [2] read?
The EC50 was 200 nM.

And the inhibition [26]?
Its inhibition is 63%.

And the IC50 [10]?
The IC50 was 56 nM.

What about the EC50 [11] of the same compound?
The EC50 was 294 nM.

And the IC50 [13]?
Its IC50 is 643 nM.

What about the IC50 [18] of the same compound?
The IC50 was greater than 10000 nM.
